Test results reported in patent US11072588B2, “Barbituric acid derivatives comprising cationic and lipophilic groups” (UNIVERSITETET I TROMSØ—NORGES ARKTISKE UNIVERSITET, priority 2017, dated 2021).
Converted amounts (≈) assume the structure as drawn.

Assays:
[1] = Determination of haemolytic activity; format: cell-based; conditions: human red blood cells (washed, from heparinized fresh blood); human RBCs, 1 h, 37° C.; read-out: RBC: haemolytic activity against human RBCs (EC50)
Description: Hemolysis was determined using a heparinized fraction (1000 IU/mL) of freshly drawn blood. Blood collected in EDTA containing test tubes (Vacutest®, KIMA, Arzergrande, Italy) was used for determination of the hematocrit (hct). The heparinized blood was washed 3× with pre-warmed PBS and adjusted to a final hct of 4%. Derivatives in DMSO (50 mM) were added to a 96-well polypropylene V-bottom plate (NUNC, Fisher Scientific, Oslo, Norway) and serially diluted. The test concentration range was 500-4 μM with DMSO contents ≤1%. A solution of 1% triton X-100 was used as positive control for 100% hemolysis. As negative control a solution of 1% DMSO in PBS buffer was included. No signs of DMSO toxicity were detected. RBCs (1% v/v final concentration) were added to the well plate and incubated at 37° C. and 800 rpm for 1 h. After centrifugation (5 min, 3000 g), 100 μL of each well were transferred to a 96-well flat bottom plate and absorbance was measured at 545 nm with a microplate reader (VersaMax™, Molecular Devices, Sunnyvale, Calif., USA). The percentage of hemolysis was calculated as the ratio of the absorbance in the derivative-treated and surfactant treated samples, corrected for the PBS background. Three independent experiments were performed and EC50 values are presented as averages.

S. aureus IHT 99040 = assay: MIC, multi-resistant clinical isolate; format: cell-based, Staphylococcus aureus; conditions: for selectivity index (EC50/MIC): RBC EC50 / MIC; for MIC: Staphylococcus aureus, IHT99040, read-out: Antimicrobial activity (MIC)
Description: (§1) Working solutions of the test derivatives were prepared with up to 100% DMSO and stored at −20° C. If necessary, the solutions were heated to 40-80° C. before testing to facilitate complete dissolution. Double-distilled water was used in all dilutions prepared. […] A microdilution susceptibility test was used for MIC determination according to Clinical and Laboratory Standards Institute, “Methods for Dilution Antimicrobial Sisceptibility Tests for Bacteria That Graw Aerobically”, Approved Standard M07-A9, edition 2012, with modifications as described by Igumnova et al (Bioorg Med Chem, 2016, 24 (22), 5884-5894).
(§2) Briefly, the bacterial inoculum was adjusted to approximately 2.5-3×10^4 cells/mL in Mueller-Hinton broth (MHB, Difco Laboratories, USA), and incubated in a ratio of 1:1 with test derivatives in polystyrene 96-well flat-bottom microplates (NUNC, Roskilde, Denmark). Positive growth control (without test derivatives) and negative control (without bacteria) were included. The reference antibiotic was oxytetracycline hydrochloride (Sigma Aldrich, Saint Louis, Mo., USA). The microplates were incubated in an EnVision microplate reader (Perkin-Elmer, Turku, Finland) placed in an incubator set to 35° C. for 48 h. The MIC value was defined as the lowest concentration of derivative resulting in no bacterial growth as determined by OD600 measurement. All derivatives were tested in three parallels.
(§3) The MIC was determined as explained above with some exceptions; working solutions of test derivatives were prepared from concentrated DMSO stocks stored at room temperature, the density of the bacterial inoculum was increased 40× to 1-1.2×10^6 cells/mL, enterococci were incubated in Brain Heart Infusion broth (BHIB, Difco Laboratories, USA), the microplates were incubated for 24 h, and the derivatives were tested in four parallels.

S. aureus N315 = assay: MIC, multi-resistant clinical isolate; format: cell-based, Staphylococcus aureus; conditions: for selectivity index (EC50/MIC): RBC EC50 / MIC, S. aureus N315; for MIC: Staphylococcus aureus, N315, read-out: Antimicrobial activity (MIC)
Description: as §1, §2, §3

S. aureus NCTC 10442 = assay: MIC, multi-resistant clinical isolate; format: cell-based, Staphylococcus aureus; conditions: for selectivity index (EC50/MIC): RBC EC50 / MIC, S. aureus NCTC 10442; for MIC: Staphylococcus aureus, NCTC10442, read-out: Antimicrobial activity (MIC)
Description: as §1, §2, §3

S. aureus strain 85/2082 = assay: MIC, multi-resistant clinical isolate; format: cell-based, Staphylococcus aureus; conditions: for selectivity index (EC50/MIC): RBC EC50 / MIC, S. aureus strain 85/2082; for MIC: Staphylococcus aureus, 85/2082, read-out: Antimicrobial activity (MIC)
Description: as §1, §2, §3

S. aureus strain WIS = assay: MIC, multi-resistant clinical isolate; format: cell-based, Staphylococcus aureus; conditions: for selectivity index (EC50/MIC): RBC EC50 / MIC, S. aureus strain WIS; for MIC: Staphylococcus aureus, read-out: Antimicrobial activity (MIC)
Description: as §1, §2, §3

E. coli 50739822 = assay: MIC, multi-resistant clinical isolate; format: cell-based, Escherichia coli; conditions: for MIC: Escherichia coli, read-out: Antimicrobial activity (MIC); for selectivity index (EC50/MIC): RBC EC50 / MIC
Description: as §1, §2, §3

A. baumanii K12-21 = assay: MIC, multi-resistant clinical isolate; format: cell-based, Acinetobacter baumannii; conditions: for MIC: Acinetobacter baumannii, K1221, read-out: Antimicrobial activity (MIC); for selectivity index (EC50/MIC): RBC EC50 / MIC
Description: as §1, §2, §3

A. baumanii K44-35 = assay: MIC, multi-resistant clinical isolate; format: cell-based, Acinetobacter baumannii; conditions: for MIC: Acinetobacter baumannii, K4435, read-out: Antimicrobial activity (MIC); for selectivity index (EC50/MIC): RBC EC50 / MIC
Description: as §1, §2, §3

A. baumanii K47-42 = assay: MIC, multi-resistant clinical isolate; format: cell-based, Acinetobacter baumannii; conditions: for MIC: Acinetobacter baumannii, K4742, read-out: Antimicrobial activity (MIC); for selectivity index (EC50/MIC): RBC EC50 / MIC
Description: as §1, §2, §3

A. baumanii K55-13 = assay: MIC, multi-resistant clinical isolate; format: cell-based, Acinetobacter baumannii; conditions: for MIC: Acinetobacter baumannii, K5513, read-out: Antimicrobial activity (MIC); for selectivity index (EC50/MIC): RBC EC50 / MIC
Description: as §1, §2, §3

A. baumanii K63-58 = assay: MIC, multi-resistant clinical isolate; format: cell-based, Acinetobacter baumannii; conditions: A. baumanii K63-58, resistant to colistin; for MIC: Acinetobacter baumannii, K6358, 24 h, read-out: Antimicrobial activity (MIC); for selectivity index (EC50/MIC): RBC EC50 / MIC
Description: as §1, §2, §3

S. epidermidis = assay: Anti-biofilm activity (inhibition of biofilm formation); format: cell-based; conditions: Staphylococcus epidermidis, read-out: Anti-biofilm IC50
[2] = tested on: human metastatic melanoma (A2058, ATCC CRL-11147) cells; assay: Anti-cancer activity against A2058 cells; format: cell-based; conditions: A2058, read-out: Anti-cancer IC50
Description: Cytotoxicity of the test compounds was evaluated after 72 hour exposure to human metastatic melanoma (A2058, ATCC CRL-11147) cells.
A2058 cells were grown overnight (2,000 cells/well), and then incubated with the test compounds (range of concentrations) diluted in MEM Earle's supplemented with gentamycin (10 μg/mL), non-essential amino acids (1%), sodium pyruvate (1 mM), L-alanyl-Lglutamine (2 mM), but without FBS (total volume was 100 μl) for […]. Ten μL of CellTiter 96® AQueous One Solution Reagent (Promega, Madison, Wis., USA) was added, and the plates were then further incubated for 1 hour.
Absorbance was measured at 485 nm in a DTX 880 Multimode Detector. Results were calculated as % survival compared to negative (assay media) and positive (Triton X-100; Sigma-Aldrich) controls.

Compound: N=C(N)NCCCCN1C(=O)N(CCCCNC(=N)N)C(=O)C(Cc2ccc3ccccc3c2)(Cc2ccc3ccccc3c2)C1=O [8(iv), 1,1′-(4,4′-(5,5-bis(naphthalen-2-ylmethyl)-2,4,6-trioxodihydropyrimidine-1,3(2H,4H)-diyl)bis(butane-4,1-diyl))-diguanidine]
- EC50 at 1 h [1]: 133 µg/mL (≈ 210 µM)
- selectivity index (EC50/MIC) (S. aureus IHT 99040): (17)
- MIC (S. aureus IHT 99040): 8 µg/mL (≈ 12.6 µM)
- selectivity index (EC50/MIC) (S. aureus N315): (17)
- MIC (S. aureus N315): 8 µg/mL (≈ 12.6 µM)
- selectivity index (EC50/MIC) (S. aureus NCTC 10442): (17)
- MIC (S. aureus NCTC 10442): 8 µg/mL (≈ 12.6 µM)
- selectivity index (EC50/MIC) (S. aureus strain 85/2082): (17)
- MIC (S. aureus strain 85/2082): 8 µg/mL (≈ 12.6 µM)
- selectivity index (EC50/MIC) (S. aureus strain WIS): (17)
- MIC (S. aureus strain WIS): 8 µg/mL (≈ 12.6 µM)
- MIC (E. coli 50739822): 8 µg/mL (≈ 12.6 µM)
- selectivity index (EC50/MIC) (E. coli 50739822): (17)
- MIC (A. baumanii K12-21): 32 µg/mL (≈ 50.4 µM)
- selectivity index (EC50/MIC) (A. baumanii K12-21): (4)
- MIC (A. baumanii K44-35): 32 µg/mL (≈ 50.4 µM)
- selectivity index (EC50/MIC) (A. baumanii K44-35): (4)
- MIC (A. baumanii K47-42): 32 µg/mL (≈ 50.4 µM)
- selectivity index (EC50/MIC) (A. baumanii K47-42): (4)
- MIC (A. baumanii K55-13): 32 µg/mL (≈ 50.4 µM)
- selectivity index (EC50/MIC) (A. baumanii K55-13): (4)
- MIC (A. baumanii K63-58): 32 µg/mL (≈ 50.4 µM)
- selectivity index (EC50/MIC) (A. baumanii K63-58): (4)
- IC50 (S. epidermidis): 1 µg/mL (≈ 1.58 µM)
- IC50 [2]: 8 µg/mL (≈ 12.6 µM)

Compound: CC(C)(C)c1cc(CC2(Cc3cc(C(C)(C)C)cc(C(C)(C)C)c3)C(=O)N(CCCCNC(=N)N)C(=O)N(CCCCNC(=N)N)C2=O)cc(C(C)(C)C)c1 [8(iii), 1,1′-(4,4′-(5,5-bis(3,5-di-tert-butylbenzyl)-2,4,6-trioxodihydropyrimidine-1,3(2H,4H)-diyl)bis(butane-4,1-diyl))-diguanidine]
- EC50 at 1 h [1]: < 4 µg/mL
- selectivity index (EC50/MIC) (S. aureus IHT 99040): (<2)
- MIC (S. aureus IHT 99040): 2 µg/mL (≈ 2.63 µM)
- selectivity index (EC50/MIC) (S. aureus N315): (<1)
- MIC (S. aureus N315): 4 µg/mL (≈ 5.27 µM)
- selectivity index (EC50/MIC) (S. aureus NCTC 10442): (<2)
- MIC (S. aureus NCTC 10442): 2 µg/mL (≈ 2.63 µM)
- selectivity index (EC50/MIC) (S. aureus strain 85/2082): (<2)
- MIC (S. aureus strain 85/2082): 2 µg/mL (≈ 2.63 µM)
- selectivity index (EC50/MIC) (S. aureus strain WIS): (<2)
- MIC (S. aureus strain WIS): 2 µg/mL (≈ 2.63 µM)
- MIC (E. coli 50739822): 8 µg/mL (≈ 10.5 µM)
- selectivity index (EC50/MIC) (E. coli 50739822): (<0.5)
- MIC (A. baumanii K12-21): 4 µg/mL (≈ 5.27 µM)
- selectivity index (EC50/MIC) (A. baumanii K12-21): (<1)
- MIC (A. baumanii K44-35): 4 µg/mL (≈ 5.27 µM)
- selectivity index (EC50/MIC) (A. baumanii K44-35): (<1)
- MIC (A. baumanii K47-42): 4 µg/mL (≈ 5.27 µM)
- selectivity index (EC50/MIC) (A. baumanii K47-42): (<1)
- MIC (A. baumanii K55-13): 4 µg/mL (≈ 5.27 µM)
- selectivity index (EC50/MIC) (A. baumanii K55-13): (<1)
- MIC (A. baumanii K63-58): 4 µg/mL (≈ 5.27 µM)
- selectivity index (EC50/MIC) (A. baumanii K63-58): (<1)
- IC50 (S. epidermidis): 2 µg/mL (≈ 2.63 µM)
- IC50 [2]: 33 µg/mL (≈ 43.5 µM)
